Laboratory results published in ChEMBL document CHEMBL1201862, “PubChem BioAssay data set” (2004).
The source made the active and inactive calls.

Columns and labels:
[1] = Luminescence Cell-Based Dose Response HTS to Identify Inhibitors of 5'UTR Stem-Loop Driven Prion Protein mRNA Translation in H4 Neuroglioblastoma Cells. [Related pubchem assays: 1827 (Project Summary), 1813 (Primary HTS)]; format: functional
[2] = cells; format: functional, cell-based
[3] = system: HEK293; experiment: inhibitors of LMP1-driven NF-kB reporter, dose response, cell-based, HEK293, luciferase, cherry-pick (AID 588343); format: functional; conditions: Homo sapiens
[4] = target: Nonstructural protein 1 (Influenza A virus, UniProt Q194T2); format: functional, Influenza A virus (A/California/07/2009(H1N1))
Nonstructural protein 1, sequence (Q194T2 whole entry): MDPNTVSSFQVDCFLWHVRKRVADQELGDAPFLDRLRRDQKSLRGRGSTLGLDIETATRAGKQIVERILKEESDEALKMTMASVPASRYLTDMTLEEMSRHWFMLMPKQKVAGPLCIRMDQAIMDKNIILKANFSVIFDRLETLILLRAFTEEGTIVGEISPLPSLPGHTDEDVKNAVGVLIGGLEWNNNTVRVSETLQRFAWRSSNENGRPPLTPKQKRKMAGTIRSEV

[5] = system: BJ; experiment: cytotoxicity toward BJ-TERT fibroblasts, dose response, cell-based, RAS-independent, luminescence (AID 1933); format: functional; conditions: Homo sapiens
[6] = target: Intestinal-type alkaline phosphatase (Homo sapiens, UniProt P09923); experiment: Dose Response confirmation of uHTS hits from a small molecule inhibitors of human intestinal alkaline phosphatase via a luminescent assay. [Related pubchem assays (depositor defined):AID2544, AID2574]; format: functional
Intestinal-type alkaline phosphatase, sequence (P09923 whole entry): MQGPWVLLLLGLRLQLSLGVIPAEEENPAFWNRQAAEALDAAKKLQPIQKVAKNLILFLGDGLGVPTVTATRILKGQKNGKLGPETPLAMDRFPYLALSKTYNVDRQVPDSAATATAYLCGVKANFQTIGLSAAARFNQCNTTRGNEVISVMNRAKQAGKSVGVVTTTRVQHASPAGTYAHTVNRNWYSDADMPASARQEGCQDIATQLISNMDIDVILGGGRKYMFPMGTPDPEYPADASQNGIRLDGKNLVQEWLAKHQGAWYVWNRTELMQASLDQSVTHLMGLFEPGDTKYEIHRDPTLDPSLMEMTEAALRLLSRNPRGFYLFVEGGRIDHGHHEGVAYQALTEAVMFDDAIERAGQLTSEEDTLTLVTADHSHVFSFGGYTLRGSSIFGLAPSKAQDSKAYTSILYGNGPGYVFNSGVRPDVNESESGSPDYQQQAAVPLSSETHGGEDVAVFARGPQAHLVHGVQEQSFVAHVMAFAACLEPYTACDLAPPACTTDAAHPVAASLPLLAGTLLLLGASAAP

[7] = inhibitors of firefly luciferase expression or activity, dose response, H4 neuroglioma cells, luminescence (AID 1990); format: functional, cell-based
[8] = cytotoxicity toward DRD oncogenic fibroblasts, dose response, cell-based, non-viral oncogenic, luminescence (AID 1934); format: functional; conditions: Homo sapiens
[9] = cells; format: functional
[10] = target: Exodeoxyribonuclease V (Escherichia coli (strain K12), UniProt P04993+P07648+P08394); experiment: E. coli RecBCD inhibitors, dose response, counter-screen for AddAB inhibitor project, absorbance, V66 E. coli, mutant T4 phage (AID 492957); format: functional, cell-based, Escherichia coli str. K-12 substr. MG1655
Exodeoxyribonuclease V, sequence (P04993 whole entry): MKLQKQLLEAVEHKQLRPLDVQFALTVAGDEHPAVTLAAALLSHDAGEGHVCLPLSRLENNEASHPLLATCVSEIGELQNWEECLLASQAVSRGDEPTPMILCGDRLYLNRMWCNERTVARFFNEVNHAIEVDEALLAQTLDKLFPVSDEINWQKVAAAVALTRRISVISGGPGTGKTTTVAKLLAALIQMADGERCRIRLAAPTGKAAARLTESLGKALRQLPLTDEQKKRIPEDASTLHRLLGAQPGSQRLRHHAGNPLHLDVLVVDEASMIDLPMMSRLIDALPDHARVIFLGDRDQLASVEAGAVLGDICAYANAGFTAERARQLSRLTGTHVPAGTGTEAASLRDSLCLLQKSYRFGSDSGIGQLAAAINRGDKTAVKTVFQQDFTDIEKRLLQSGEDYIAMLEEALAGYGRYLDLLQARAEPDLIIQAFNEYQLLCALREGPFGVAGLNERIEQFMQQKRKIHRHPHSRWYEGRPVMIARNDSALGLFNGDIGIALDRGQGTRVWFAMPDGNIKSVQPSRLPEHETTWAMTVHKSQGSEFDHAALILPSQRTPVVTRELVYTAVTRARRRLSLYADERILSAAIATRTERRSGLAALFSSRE
Exodeoxyribonuclease V, sequence (P07648 whole entry): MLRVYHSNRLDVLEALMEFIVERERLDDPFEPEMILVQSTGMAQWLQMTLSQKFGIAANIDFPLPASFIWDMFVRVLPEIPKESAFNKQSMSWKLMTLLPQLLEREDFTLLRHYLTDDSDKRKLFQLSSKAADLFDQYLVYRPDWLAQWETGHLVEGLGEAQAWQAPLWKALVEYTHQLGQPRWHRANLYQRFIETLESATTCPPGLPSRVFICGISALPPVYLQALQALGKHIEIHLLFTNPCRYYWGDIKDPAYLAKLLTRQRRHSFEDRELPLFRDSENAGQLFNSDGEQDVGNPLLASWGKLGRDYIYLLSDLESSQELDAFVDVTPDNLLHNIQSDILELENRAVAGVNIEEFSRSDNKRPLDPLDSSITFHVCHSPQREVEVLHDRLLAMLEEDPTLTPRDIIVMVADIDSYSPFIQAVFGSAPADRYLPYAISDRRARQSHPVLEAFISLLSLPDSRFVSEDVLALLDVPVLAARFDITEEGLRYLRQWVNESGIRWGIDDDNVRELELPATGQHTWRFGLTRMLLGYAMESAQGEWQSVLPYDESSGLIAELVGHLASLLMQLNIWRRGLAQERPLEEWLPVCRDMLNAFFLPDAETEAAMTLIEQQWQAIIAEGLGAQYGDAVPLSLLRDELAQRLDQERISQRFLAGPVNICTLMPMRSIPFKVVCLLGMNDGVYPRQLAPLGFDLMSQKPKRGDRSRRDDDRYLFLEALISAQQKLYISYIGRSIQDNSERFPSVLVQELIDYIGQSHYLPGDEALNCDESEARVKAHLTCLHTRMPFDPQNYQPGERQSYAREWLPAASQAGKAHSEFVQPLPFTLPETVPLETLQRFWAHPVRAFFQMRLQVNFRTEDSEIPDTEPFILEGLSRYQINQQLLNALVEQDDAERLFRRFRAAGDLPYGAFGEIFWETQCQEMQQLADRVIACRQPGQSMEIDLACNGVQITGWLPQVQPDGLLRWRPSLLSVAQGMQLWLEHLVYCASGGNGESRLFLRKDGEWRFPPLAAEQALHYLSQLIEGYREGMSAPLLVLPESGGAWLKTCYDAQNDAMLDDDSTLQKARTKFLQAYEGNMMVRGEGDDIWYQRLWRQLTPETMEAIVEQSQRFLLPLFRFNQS
Exodeoxyribonuclease V, sequence (P08394 whole entry): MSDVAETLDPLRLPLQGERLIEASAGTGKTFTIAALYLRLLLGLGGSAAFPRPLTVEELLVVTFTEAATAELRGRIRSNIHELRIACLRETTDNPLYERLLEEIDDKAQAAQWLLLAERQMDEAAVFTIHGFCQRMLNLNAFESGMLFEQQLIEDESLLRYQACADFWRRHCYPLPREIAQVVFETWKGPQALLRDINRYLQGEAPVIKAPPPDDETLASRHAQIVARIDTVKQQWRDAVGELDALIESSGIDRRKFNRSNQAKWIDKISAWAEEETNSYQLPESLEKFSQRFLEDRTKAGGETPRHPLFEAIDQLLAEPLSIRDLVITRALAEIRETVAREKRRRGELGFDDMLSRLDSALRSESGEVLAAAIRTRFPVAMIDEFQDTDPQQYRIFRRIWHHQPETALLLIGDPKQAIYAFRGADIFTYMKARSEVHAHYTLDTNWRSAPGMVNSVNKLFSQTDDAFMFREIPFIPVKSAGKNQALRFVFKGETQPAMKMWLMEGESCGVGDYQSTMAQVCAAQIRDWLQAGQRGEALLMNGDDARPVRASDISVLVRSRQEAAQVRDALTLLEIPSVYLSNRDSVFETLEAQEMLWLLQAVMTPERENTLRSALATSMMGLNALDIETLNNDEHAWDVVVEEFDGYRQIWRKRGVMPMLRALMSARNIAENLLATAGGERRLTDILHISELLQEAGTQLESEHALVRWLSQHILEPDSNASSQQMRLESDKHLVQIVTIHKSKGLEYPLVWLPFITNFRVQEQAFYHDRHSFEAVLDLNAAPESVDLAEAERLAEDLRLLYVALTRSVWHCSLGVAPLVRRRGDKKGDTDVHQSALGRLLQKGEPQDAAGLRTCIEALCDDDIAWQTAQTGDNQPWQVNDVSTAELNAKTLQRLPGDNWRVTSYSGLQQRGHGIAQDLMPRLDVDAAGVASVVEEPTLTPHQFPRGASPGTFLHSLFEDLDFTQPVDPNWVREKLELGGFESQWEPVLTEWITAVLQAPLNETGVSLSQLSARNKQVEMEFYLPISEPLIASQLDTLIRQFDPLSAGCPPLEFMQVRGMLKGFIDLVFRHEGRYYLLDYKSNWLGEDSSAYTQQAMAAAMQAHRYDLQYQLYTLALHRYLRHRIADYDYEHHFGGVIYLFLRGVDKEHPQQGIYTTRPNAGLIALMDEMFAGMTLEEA

[11] = system: BJ; experiment: cytotoxicity toward BJ-TERT-LT-ST fibroblasts, dose response, cell-based, RAS-independent, luminescence (AID 1935); format: functional; conditions: Homo sapiens;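 also: BJ fibroblasts immortalized with TERT plus LT and ST oncogenes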
[12] = inhibitors of SNCA 5'UTR-driven reporter translation, confirmation, H4 neuroglioma cells, luminescence (AID 1988); format: functional, cell-based
[13] = THP-1 cell cytotoxicity, dose response, cytotoxicity control for non-replicating M. tuberculosis project (AID 489025); format: functional
[14] = Counterscreen for AddAB inhibitors: absorbance-based bacterial cell-based high throughput dose response assay for inhibitors of bacterial viability. [Related pubchem assays (depositor defined):AID435030, AID449728, AID449731, AID488942, AID488955, AID488956]; format: functional
[15] = target: Heat shock protein HSP 90-alpha (Homo sapiens, UniProt P07900); format: functional, organism-based
[16] = system: INS1; experiment: beta cell apoptosis inhibitors, cytokine rescue, dose response, luminescence, retest (AID 449756); format: functional, cell-based; conditions: Rattus norvegicus;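 also: cell death triggered by IL-1 beta plus TNF-alpha plus IFN-gamma mixture; protective hits raise ATP signal compared with cytokine alone wells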
[17] = system: BJ; experiment: cytotoxicity toward Ras-transformed BJeLR fibroblasts, dose response, cell-based, alamar blue fluorescence, cherrypicked samples (AID 2631); format: functional; conditions: Homo sapiens;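 also: confirmatory dose-response assay in RAS-dependent BJ fibroblasts engineered with TERT, LT and ST, with cytotoxicity read by fluorescence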
[18] = system: BJ; experiment: cells; format: functional, cell-based; conditions: Homo sapiens
[19] = cells; format: functional, cell-based; remark: listed apart in the source
[20] = target: T1, CAAX prenyl protease 2 (Saccharomyces cerevisiae S288c, UniProt Q03530); format: biochemical
T1 sequence (Q03530 whole entry): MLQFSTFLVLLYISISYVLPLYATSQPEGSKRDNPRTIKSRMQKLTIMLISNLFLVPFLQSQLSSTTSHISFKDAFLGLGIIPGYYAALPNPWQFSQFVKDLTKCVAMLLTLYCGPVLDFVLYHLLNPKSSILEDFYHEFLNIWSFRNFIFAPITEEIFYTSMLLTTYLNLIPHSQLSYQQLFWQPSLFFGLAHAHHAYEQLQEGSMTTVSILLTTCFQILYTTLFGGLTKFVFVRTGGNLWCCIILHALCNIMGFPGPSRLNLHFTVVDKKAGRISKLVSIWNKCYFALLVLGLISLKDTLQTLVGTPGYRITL

[21] = target: Trypsin (Sus scrofa, UniProt P00761); experiment: porcine trypsin inhibitors, dose response, selectivity assay for Rce1 protease inhibitor project, biochemical, quenched peptide fluorescence, cherry-pick (AID 488789)
Trypsin, sequence (P00761 whole entry): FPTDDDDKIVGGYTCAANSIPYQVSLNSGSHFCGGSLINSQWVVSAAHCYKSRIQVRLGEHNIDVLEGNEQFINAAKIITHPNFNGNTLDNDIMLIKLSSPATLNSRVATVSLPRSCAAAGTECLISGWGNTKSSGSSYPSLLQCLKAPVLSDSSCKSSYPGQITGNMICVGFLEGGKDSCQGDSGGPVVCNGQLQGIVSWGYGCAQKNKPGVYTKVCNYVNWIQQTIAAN

[22] = target: CAAX prenyl protease 1 (Saccharomyces cerevisiae S288c, UniProt P47154); experiment: Ste24 protease inhibitors, dose response, biochemical, S. cerevisiae, plate reader, cherry-pick (AID 488815)
CAAX prenyl protease 1, sequence (P47154 whole entry): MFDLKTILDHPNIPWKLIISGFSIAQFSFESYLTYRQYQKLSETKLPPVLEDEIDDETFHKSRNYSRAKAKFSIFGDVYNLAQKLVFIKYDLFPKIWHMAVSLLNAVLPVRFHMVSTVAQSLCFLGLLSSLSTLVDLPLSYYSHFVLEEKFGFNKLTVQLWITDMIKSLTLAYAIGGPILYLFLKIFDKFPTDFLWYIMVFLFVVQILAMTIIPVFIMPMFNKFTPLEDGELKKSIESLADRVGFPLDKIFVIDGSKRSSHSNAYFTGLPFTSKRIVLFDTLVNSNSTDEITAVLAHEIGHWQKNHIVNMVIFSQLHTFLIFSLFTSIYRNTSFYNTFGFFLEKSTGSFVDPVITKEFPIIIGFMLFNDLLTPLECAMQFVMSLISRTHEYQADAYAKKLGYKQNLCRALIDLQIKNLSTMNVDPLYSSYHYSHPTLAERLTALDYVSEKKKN

[23] = target: G-protein coupled receptor 55 (Homo sapiens, UniProt Q9Y2T6); experiment: GPR55 antagonists, SAR follow-up, counter-screen for GPR35 antagonist project, imaging, image-based (AID 2397); format: functional
G-protein coupled receptor 55, sequence (Q9Y2T6 whole entry): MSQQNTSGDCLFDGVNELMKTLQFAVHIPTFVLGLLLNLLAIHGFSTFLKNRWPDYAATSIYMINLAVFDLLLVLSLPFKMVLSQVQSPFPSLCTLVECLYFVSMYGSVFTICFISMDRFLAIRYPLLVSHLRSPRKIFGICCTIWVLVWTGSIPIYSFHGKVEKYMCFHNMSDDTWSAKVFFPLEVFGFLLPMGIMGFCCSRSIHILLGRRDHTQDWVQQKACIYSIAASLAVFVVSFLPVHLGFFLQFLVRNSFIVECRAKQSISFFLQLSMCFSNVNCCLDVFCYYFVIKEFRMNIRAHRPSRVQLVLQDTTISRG

[24] = target: G-protein coupled receptor 35 (Homo sapiens, UniProt Q9HC97); experiment: SAR Analysis for the identification of Selective Antagonists of ERK1/2 Activity in GPR35-Overexpressing U2OS Cells. [Related pubchem assays: 2079, 2058 ]; format: functional, cell-based
G-protein coupled receptor 35, sequence (Q9HC97 whole entry): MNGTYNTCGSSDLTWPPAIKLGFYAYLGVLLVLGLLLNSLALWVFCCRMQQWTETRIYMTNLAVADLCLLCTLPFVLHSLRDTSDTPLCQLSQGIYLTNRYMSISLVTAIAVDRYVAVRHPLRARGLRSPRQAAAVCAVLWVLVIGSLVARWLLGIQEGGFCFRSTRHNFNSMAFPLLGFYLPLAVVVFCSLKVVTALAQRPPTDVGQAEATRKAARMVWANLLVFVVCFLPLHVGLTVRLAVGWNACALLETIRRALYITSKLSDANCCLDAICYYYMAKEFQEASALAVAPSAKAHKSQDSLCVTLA

Cn1nnnc1N=N/C(=N/Nc1ccccc1)c1ccccc1
inconclusive: EC50 [8] 7.59 µM | EC50 [11] 4.63 µM | EC50 [17] 0.627 µM
active: EC50 [2] 8.13 µM | AC50 [3] 2.69 µM | IC50 [4] 26.5 µM | EC50 [5] 5.67 µM | IC50 [9] 26.6 µM | EC50 [12] 8.09 µM | CC50 [13] < 0.078 µM | AC50 [15] 3.55 µM | AC50 [16] 0.408 µM | EC50 [18] 2.17 µM
inactive: IC50 [6] > 100 µM | IC50 [10] > 119 µM | IC50 [14] > 119 µM
> 350 µM (not active): EC50 [19]
> 120 µM (not active): EC50 [1] | EC50 [7]

COc1ccccc1-c1coc2c(CN3CCN(C)CC3)c(O)ccc2c1=O
active: AC50 [20] 97.9 µM | AC50 [21] 28.3 µM | AC50 [22] 1.57 µM

CCOc1ccc(NC(=O)CSc2nc3ccsc3c(=O)n2Cc2ccc(C(=O)O)cc2)cc1
inactive: IC50 [23] > 32 µM
14.5 µM (not active): IC50 [24]
